melting point: 250 to 255 °C (dec.)
Structure (SMILES): C[C@H](CO)Nc1nc(SCc2ccccc2F)nc2[nH]c(N)nc12 [Example 4, (2R)-2-[[8-amino-2-[[(2-fluorophenyl)methyl]thio]-9H-purin-6-yl]amino]-1-propanol]

— patent publication US6958344B2, “Pyrimidine compounds and their use as modulators of chemokine receptor activity” (AstraZeneca AB, priority 2000, dated 2005)
